Measurements: patent publication US4429127A, “Quinoline carboxylic acid derivative” (Kyorin Pharmaceutical Co., Ltd., priority 1981, dated 1984)
≈ marks a conversion by molar mass, not a printed value. Where two headings read alike, the source gives them in different places.

Key:
[1] = Metabolism when administered to animals; assay type: in vivo
[2] = test system: E. coli ML4707; assay: MIC against the infecting strain (Table 2); assay type: cell-based; details: Escherichia coli; E. coli ML4707; read-out: MIC
Description: (§1) The minimum inhibitory concentration (MIC) of the compound (I) was determined by an agar dilution technique (the standard method of Japan Society of Chemotherapy) against standard strains of gram-positive and gram-negative bacteria.

[3] = test system: Staphylococcus aureus Smith; assay: MIC against the infecting strain (Table 2); assay type: cell-based; details: Staphylococcus aureus Smith; read-out: MIC
Description: as §1

[4] = Tissue levels after a single oral administration, mice and rats together; assay type: in vivo; details: single oral 50 mg/kg
Description: (§2) Tissue levels of the compound (I) after a single oral administration of 50 mg/kg in mice and rats
(§3) Tissue levels of the compound (I) were determined by micro-biological assay which employed the thin layer cup method with Bacillus subtilis ATCC6633 as the test organism. Serum and tissue levels of the compound (I) were calculated with the standard curve prepared in normal serum of the test animal species and M/15 phosphate buffer (pH 7.5), respectively.

[5] = test system: gram-positive and gram-negative bacteria; assay: In vitro antibacterial activity against gram-positive and gram-negative bacteria (in words); assay type: cell-based; details: versus nalidixic acid and pipemidic acid
Description: as §1

[6] = Tissue levels after a single oral administration in mice (microbiological assay); assay type: in vivo; details: mouse; for concentration at 0.5 h / concentration at 1 h / concentration at 2 h / concentration at 4 h / concentration at 6 h: 50 mg/kg oral
Description: as §2, §3

[7] = test system: E. coli ML4707; assay: In vivo antibacterial activity, systemic infection in mice; design: species or system mice (male, ICR); details: Escherichia coli, ML4707, 168 h; mice, oral at 0 and 4 hrs. after infection; challenge 1.2 × 10^7 cells/animal in saline; 7 days survival; read-out: ED50
Description: (§4) The in vivo antibacterial activity of the compound (I) was determined in systemic infection in mice. The systemic infections were produced in male mice ICR (body weight, 19±2 g) by inoculating intraperitoneally with Staphylococcus aureus Smith and E. coli ML4707. The compounds were administered orally in divided doses at 0 and 4 hrs. after infection. The therapeutic effect of drugs was judged from the number of mice surviving after 7 days of observation. A comparison of in vivo antibacterial activity was made on the basis of the […] effective dose (ED50) calculated by the method of Litchfield and Wilcoxon.

[8] = test system: Staphylococcus aureus Smith; assay: as above; design: species or system mice (male, ICR)
Description: as §4

[9] = Acute toxicity in mice; assay type: in vivo; details: for LD50 at 168 h: mouse, in vivo, male mice, 7 days observation
Text: Acute toxicity of the compound (I) was examined in mice (ICR strain, 7 weeks old). Observation period was 7 days after a single oral and intravenous administration.

[10] = test system: Salmonella enteritidis IID604; assay: In vitro antibacterial activity (MIC, agar dilution); assay type: cell-based; details: Salmonella enterica; Salmonella enteritidis IID604; inoculum 10^8 cells/ml; read-out: MIC
Description: as §1
(§5) Inoculum size: 10^8 cells/ml

[11] = test system: E. coli NIHJ JC-2; assay: as above; assay type: cell-based; details: Escherichia coli, NIHJJC2; E. coli NIHJ JC-2; inoculum 10^8 cells/ml; read-out: MIC
Description: as §1, §5

[12] = test system: Bacillus subtilis PCI 219; assay: as above; assay type: cell-based; details: PCI219; Bacillus subtilis PCI 219; inoculum 10^8 cells/ml; read-out: MIC
Description: as §1, §5

[13] = test system: Enterobacter cloacae IID977; assay: as above; assay type: cell-based; details: inoculum 10^8 cells/ml
Description: as §1, §5

[14] = test system: P. morganii IID602; assay: as above; assay type: cell-based; details: Morganella morganii, inoculum 10^8 cells/ml
Description: as §1, §5

[15] = test system: E. coli ATCC10536; assay: as above; assay type: cell-based; details: Escherichia coli; E. coli ATCC10536; inoculum 10^8 cells/ml; read-out: MIC
Description: as §1, §5

[16] = test system: S. epidermidis IID866; assay: as above; assay type: cell-based; details: Staphylococcus epidermidis, inoculum 10^8 cells/ml
Description: as §1, §5

[17] = test system: S. aureus IID670 (Terajima); assay: as above; assay type: cell-based; details: Staphylococcus aureus; S. aureus IID670 (Terajima); inoculum 10^8 cells/ml; read-out: MIC
Description: as §1, §5

[18] = test system: Citrobacter freundii IID976; assay: as above; assay type: cell-based; details: inoculum 10^8 cells/ml
Description: as §1, §5

[19] = test system: Streptococcus pyogenes IID692; assay: as above; assay type: cell-based; details: Streptococcus pyogenes IID692; inoculum 10^8 cells/ml; read-out: MIC
Description: as §1, §5

[20] = test system: S. faecalis IID682; assay: as above; assay type: cell-based; details: Enterococcus faecalis; S. faecalis IID682; inoculum 10^8 cells/ml; read-out: MIC
Description: as §1, §5

[21] = test system: P. aeruginosa IFO12689; assay: as above; assay type: cell-based; details: Pseudomonas aeruginosa; P. aeruginosa IFO12689; inoculum 10^8 cells/ml; read-out: MIC
Description: as §1, §5

[22] = test system: Haemophilus influenzae IID986; assay: as above; assay type: cell-based; details: Haemophilus influenzae IID986; inoculum 10^8 cells/ml; read-out: MIC
Description: as §1, §5

[23] = test system: Shigella sonnei IID969; assay: as above; assay type: cell-based; details: inoculum 10^8 cells/ml
Description: as §1, §5

[24] = test system: Yersinia enterocolitica IID981; assay: as above; assay type: cell-based; details: inoculum 10^8 cells/ml
Description: as §1, §5

[25] = test system: Klebsiella pneumoniae IFO3512; assay: as above; assay type: cell-based; details: Klebsiella pneumoniae IFO3512; inoculum 10^8 cells/ml; read-out: MIC
Description: as §1, §5

[26] = test system: gram-positive bacteria; assay: In vitro antibacterial activity against gram-positive bacteria (in words); assay type: cell-based
Description: as §1

[27] = kidney, read-out: Kidney concentration
[28] = liver, read-out: Liver concentration
[29] = lung, read-out: Lung concentration
[30] = serum, read-out: Serum concentration

For `CCn1cc(C(=O)O)c(=O)c2cc(F)c(N3CCN(Cc4ccc(N)cc4)CC3)c(F)c21` [compound (I), 7-[4-(p-aminobenzyl)-1-piperazinyl]-1-ethyl-6,8-difluoro-1,4-dihydro-4-oxoquinoline-3-carboxylic acid], the “Metabolism, in words” value [1] was “metabolized in part to 1-ethyl-6,8-difluoro-1,4-dihydro-4-oxo-7-(1-piperazinyl)quinoline-3-carboxylic acid”, the MIC [2] was 0.39 µg/mL (≈ 0.881 µM) and the MIC [3] was 0.05 µg/mL (≈ 0.113 µM). For the same compound, the “Level in lung, liver and kidney relative to serum, in words” value ([4]; both species) was “higher than those in serum”, the “Transferability in tissues, in words” value ([4]; mice and rats) was “very excellent” and the Tmax ([4]; serum, mice and rats, read-out: Time to peak serum level) was 30 to 60 min. For the same compound, the “Antibacterial activity against gram-positive and gram-negative bacteria, in words” value [5] was “more active than nalidixic acid and pipemidic acid”, the concentration at 0.5 h [6, 27] was 13000 ng/mL and the concentration at 1 h [6, 27] was 13000 ng/mL. The concentration at 2 h [6, 27] was 7800 ng/mL, the concentration at 4 h [6, 27] was 4600 ng/mL and the concentration at 6 h [6, 27] was 4600 ng/mL. For the same compound, the concentration at 0.5 h [6, 28] was 22500 ng/mL, the concentration at 1 h [6, 28] was 17500 ng/mL and the concentration at 2 h [6, 28] was 12000 ng/mL. For the same compound, the concentration at 4 h [6, 28] was 9000 ng/mL, the concentration at 6 h [6, 28] was 5800 ng/mL and the concentration at 0.5 h [6, 29] was 12800 ng/mL. For the same compound, the concentration at 1 h [6, 29] was 9500 ng/mL, the concentration at 2 h [6, 29] was 5500 ng/mL and the concentration at 4 h [6, 29] was 4300 ng/mL. For the same compound, the concentration at 6 h [6, 29] was 2800 ng/mL, the concentration at 0.5 h [6, 30] was 8600 ng/mL and the concentration at 1 h [6, 30] was 6500 ng/mL. For the same compound, the concentration at 2 h [6, 30] was 5000 ng/mL, the concentration at 4 h [6, 30] was 2700 ng/mL and the concentration at 6 h [6, 30] was 1800 ng/mL. The Cmax ([6]; serum, mice, single oral 50 mg/kg, read-out: Peak serum level) was 8600 ng/mL, the ED50 [7] was 13.8 mg/kg and the “Potency superior to nalidixic acid (in vivo)” value ([8]; S. aureus Smith, versus nalidixic acid) was 172 times. The “In vivo antibacterial activity, in words” value ([8]; S. aureus Smith, versus nalidixic acid and pipemidic acid) was “significantly more effective than that of nalidixic acid and pipemidic acid”, the “Potency superior to pipemidic acid (in vivo)” value ([8]; S. aureus Smith, versus pipemidic acid) was 62 times and the ED50 ([8]; Staphylococcus aureus, 168 h, mice, oral at 0 and 4 hrs. after infection, challenge 2.4 × 10^5 cells/animal in BHI containing mucin, 7 days survival, read-out: ED50) was 3.7 mg/kg. The “Acute toxicity, in words” value ([9]; mice, single oral and intravenous administration) was “low toxicity”, the LD50 at 168 h ([9]; iv) was 250 to 300 mg/kg and the LD50 at 168 h ([9]; po) was > 4000 mg/kg. The MIC [10] was 1.56 µg/mL (≈ 3.53 µM), the MIC [11] was 0.2 µg/mL (≈ 0.452 µM) and the MIC [12] was 0.1 µg/mL (≈ 0.226 µM). The MIC [13] was 1.56 µg/mL (≈ 3.53 µM), the MIC [14] was 1.56 µg/mL (≈ 3.53 µM) and the MIC [15] was 0.39 µg/mL (≈ 0.881 µM). It also gave an MIC [16] of 0.2 µg/mL (≈ 0.452 µM), an MIC [17] of 0.2 µg/mL (≈ 0.452 µM) and an MIC [18] of 1.56 µg/mL (≈ 3.53 µM). It also gave an MIC [19] of 0.78 µg/mL (≈ 1.76 µM), an MIC [20] of 0.78 µg/mL (≈ 1.76 µM) and an MIC [21] of 25 µg/mL (≈ 56.5 µM). The MIC [22] was 0.2 µg/mL (≈ 0.452 µM), the MIC [23] was 0.39 µg/mL (≈ 0.881 µM) and the MIC [24] was 1.56 µg/mL (≈ 3.53 µM). For the same compound, the MIC [25] was 0.1 µg/mL (≈ 0.226 µM) and the “Antibacterial activity against gram-positive bacteria containing Streptococcus spp., in words” value [26] was “more potent against gram-positive bacteria containing Streptococcus spp”.
